In the oligonucleotide strings, read from the 5' end, every base follows the letter of its sugar. An asterisk marks phosphorothioate; unmarked linkages are phosphodiester. Other units and linkages are bracketed, terminal groups are in braces. A string of capitals states the bases alone. d = 2'-deoxy (DNA); m = 2'-O-methyl
What follows are substances tested against T1, human TLR7 (Homo sapiens, UniProt Q9NYK1) (assay: HEK-TLR7 NF-κB-luciferase reporter, R848 stimulation). Conditions: HEK-TLR7; 100 nM ASO; percentage of R848 without ASO (Alharbi et al., 2020).
T1 construct: HA; host or cells: 293XL-hTLR7-HA (HEK293)
T1 sequence (Q9NYK1 27-1049): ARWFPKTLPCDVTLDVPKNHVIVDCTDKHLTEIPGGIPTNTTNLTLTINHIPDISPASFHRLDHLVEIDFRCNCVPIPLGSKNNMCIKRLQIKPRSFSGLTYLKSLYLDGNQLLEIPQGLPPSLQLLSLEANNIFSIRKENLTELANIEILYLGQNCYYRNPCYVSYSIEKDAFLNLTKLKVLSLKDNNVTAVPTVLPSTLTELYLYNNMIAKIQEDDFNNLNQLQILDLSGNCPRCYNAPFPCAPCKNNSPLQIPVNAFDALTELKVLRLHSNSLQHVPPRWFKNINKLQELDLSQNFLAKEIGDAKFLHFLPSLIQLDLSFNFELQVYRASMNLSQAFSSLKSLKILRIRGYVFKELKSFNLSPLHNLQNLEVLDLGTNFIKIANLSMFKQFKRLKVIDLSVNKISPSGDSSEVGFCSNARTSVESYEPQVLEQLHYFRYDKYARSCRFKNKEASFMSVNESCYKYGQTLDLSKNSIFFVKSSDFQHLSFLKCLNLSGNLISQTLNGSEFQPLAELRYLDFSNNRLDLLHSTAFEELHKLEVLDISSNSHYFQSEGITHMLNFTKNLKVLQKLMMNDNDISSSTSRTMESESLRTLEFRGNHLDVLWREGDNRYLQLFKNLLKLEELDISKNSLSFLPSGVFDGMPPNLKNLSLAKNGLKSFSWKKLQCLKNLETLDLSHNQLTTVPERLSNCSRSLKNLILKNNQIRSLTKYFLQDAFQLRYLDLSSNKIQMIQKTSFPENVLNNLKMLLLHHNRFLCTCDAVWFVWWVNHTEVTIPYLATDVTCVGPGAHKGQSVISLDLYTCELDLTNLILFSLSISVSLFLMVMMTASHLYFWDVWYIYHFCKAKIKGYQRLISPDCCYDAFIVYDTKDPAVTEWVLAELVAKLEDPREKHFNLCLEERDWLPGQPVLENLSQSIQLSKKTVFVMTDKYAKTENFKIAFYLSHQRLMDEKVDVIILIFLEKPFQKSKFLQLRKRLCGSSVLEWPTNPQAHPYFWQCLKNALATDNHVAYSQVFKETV
Format: cell-based
For “mA*mG*mU*mC*mU*C*C*A*T*G*T*C*C*C*A*mG*mG*mC*mC*mU (mA*mG*mU*mC*mU*dC*dC*dA*dT*dG*dT*dC*dC*dC*dA*mG*mG*mC*mC*mU; antisense) [[CDKN2B-AS1]2232]”, the “TLR7-100 nM: averaged NF-κB-Luciferase relative to R848” value was 35.77%. For “mA*mG*mU*mG*mG*C*A*C*A*T*A*C*C*A*C*mA*mC*mC*mC*mU (AGUGGCACATACCACACCCU; antisense; sugars from the 5' end m5 d10 m5, all phosphorothioate, methylation of C not given here) [[CDKN2B-AS1]495]”, the “TLR7-100 nM: averaged NF-κB-Luciferase relative to R848” value was 41.95%. With “mA*mU*mU*mU*mC*C*A*C*A*T*G*C*C*C*A*mG*mU*mG*mU*mU (AUUUCCACATGCCCAGUGUU; antisense; sugars from the 5' end m5 d10 m5, all phosphorothioate, methylation of C not given here) [[CDKN2B-AS1]626]” the “TLR7-100 nM: averaged NF-κB-Luciferase relative to R848” value was 32.05%. With “mC*mA*mG*mU*mC*T*C*C*A*T*G*T*C*C*C*mA*mG*mG*mC*mC (mC*mA*mG*mU*mC*dT*dC*dC*dA*dT*dG*dT*dC*dC*dC*mA*mG*mG*mC*mC; antisense) [[CDKN2B-AS1]2233]” the “TLR7-100 nM: averaged NF-κB-Luciferase relative to R848” value was 47.75%. In the case of “mC*mA*mG*mU*mG*T*T*T*T*T*A*A*T*T*T*mU*mG*mU*mA*mG (mC*mA*mG*mU*mG*dT*dT*dT*dT*dT*dA*dA*dT*dT*dT*mU*mG*mU*mA*mG; antisense) [[CDKN2B-AS1]613]”, the “TLR7-100 nM: averaged NF-κB-Luciferase relative to R848” value is reported as 62.68%. In the case of “mC*mU*mU*mG*mU*G*A*A*A*A*G*A*T*T*A*mU*mC*mU*mU*mC (mC*mU*mU*mG*mU*dG*dA*dA*dA*dA*dG*dA*dT*dT*dA*mU*mC*mU*mU*mC) [[CDKN2B-AS1]2139]”, the “TLR7-100 nM: averaged NF-κB-Luciferase relative to R848” value is reported as 85.33%. For “mG*mC*mA*mG*mU*C*T*C*C*A*T*G*T*C*C*mC*mA*mG*mG*mC (GCAGUCTCCATGTCCCAGGC; antisense; sugars from the 5' end m5 d10 m5, all phosphorothioate, methylation of C not given here) [[CDKN2B-AS1]2234]”, the “TLR7-100 nM: averaged NF-κB-Luciferase relative to R848” value was 20.30%. For “mG*mU*mC*mU*mC*C*A*T*G*T*C*C*C*A*G*mG*mC*mC*mU*mC (mG*mU*mC*mU*mC*dC*dA*dT*dG*dT*dC*dC*dC*dA*dG*mG*mC*mC*mU*mC) [[CDKN2B;AS1]2231]”, the “TLR7-100 nM: averaged NF-κB-Luciferase relative to R848” value was 23.75%. For “mG*mU*mG*mU*mC*C*T*T*C*A*T*G*C*T*T*mU*mG*mG*mA*mU (GUGUCCTTCATGCTTUGGAU; antisense; sugars from the 5' end m5 d10 m5, all phosphorothioate, methylation of C not given here) [[CDKN2B-AS1]1415]”, the “TLR7-100 nM: averaged NF-κB-Luciferase relative to R848” value was 18.05%. For “mG*mU*mG*mU*mU*T*T*T*A*A*T*T*T*T*G*mU*mA*mG*mA*mG (mG*mU*mG*mU*mU*dT*dT*dT*dA*dA*dT*dT*dT*dT*dG*mU*mA*mG*mA*mG) [[CDKN2B-AS1]611]”, the “TLR7-100 nM: averaged NF-κB-Luciferase relative to R848” value was 23.63%. With “mU*mA*mU*mU*mU*C*C*A*C*A*T*G*C*C*C*mA*mG*mU*mG*mU (mU*mA*mU*mU*mU*dC*dC*dA*dC*dA*dT*dG*dC*dC*dC*mA*mG*mU*mG*mU; antisense) [[CDKN2B-AS1]627]” the “TLR7-100 nM: averaged NF-κB-Luciferase relative to R848” value was 30.54%.

Same assay, conditions: HEK-TLR7; 100-500 nM oligo 20-50 min before R848 1 μg/ml
For “mC*mU*mU*mG*mU*G*A*A*A*A*G*A*T*T*A*mU*mC*mU*mU*mC (mC*mU*mU*mG*mU*dG*dA*dA*dA*dA*dG*dA*dT*dT*dA*mU*mC*mU*mU*mC) [[CDKN2B-AS1]2139]”, the “inhibition of R848 sensing by TLR7, short pre-treatment (in words)” value was “did not inhibit TLR7”.
